Columns and labels:
androgen receptor (AR) [1] = type: cell-based
From the text: The LNCaP-AR cells are a line of lymph node carcinoma of prostate cells transduced with a plasmid that makes express androgen receptors.

androgen receptor (AR) [2] = type: cell-based; remark: listed apart in the source
From the text: For example, the compounds can be subjected to tests using an artificial androgen receptor (AR) response reporter system in a hormone refractory prostate cancer cell line. The prostate cancer LNCaP cells are engineered to stably express about 5-fold higher level of AR than endogenous level. The exogenous AR has similar properties to endogenous AR in that both are stabilized by a synthetic androgen R1881. […] The antagonistic activity of the compounds for which the synthesis is described above can be examined in the presence of 100 pM of R1881. Engineered LNCaP cells (LNCaP-AR, also abbreviated LN-AR) are maintained in Iscove's medium containing 10% fetal bovine serum (FBS). Two days prior to drug treatment, the cells are grown in Iscove's medium containing 10% charcoal-stripped FBS (CS-FBS) to deprive of androgens. The cells are split and grown in Iscove's medium containing 10% CS-FBS with 100 pM of R1881 and increasing concentrations of test compounds. After two days of incubation, reporter activities are assayed.
To determine agonistic activities of different compounds, the stimulating activities on androgen receptor (AR) using the AR response reporter as the measure in the LN-AR system in the absence of R1881 can be examined.

androgen receptor (AR) [3] = target: androgen receptor (AR) (Homo sapiens, UniProt P10275, T878A); settings: parental LNCaP cells
LNCaP cells = assay: MTS assay of growth of parental, hormone sensitive LNCaP cells
[4] = test system: LNCaP cells with overexpressed AR (LN-AR); assay: MTS assay of growth of LNCaP-AR cells
Experimental: LNCaP-AR cells can be maintained in Iscove's medium containing 10% FBS. The compounds are examined for their effect on growth of hormone refractory prostate cancer cells. Overexpressed LNCaP cells are used because these cells behave as hormone refractory prostate cancer cells in vitro and in vivo. Mitochondria activity by MTS assay is measured, a surrogate for growth. LNCaP cells with overexpressed AR (LN-AR) are maintained in Iscove's medium containing 10% FBS. Two days prior to drug treatment, the cells are grown in Iscove's medium containing 10% CS-FBS to deprive of androgens. The cells are then split and grown in Iscove's medium containing 10% CS-FBS with appropriate concentrations of R1881 and increasing concentrations of the test compounds. After four days incubation, cell growth is monitored by MTS (Promega, Madison, Wis.).
The inhibitory effect of compounds on growth of hormone refractory prostate cancer in the presence of 100 pM of R1881 is measured.

hormone refractory LAPC4 = assay: Hormone refractory LAPC4 xenograft model; settings: compared with vehicle
From the text: Compounds can also be tested in another xenograft model of hormone refractory prostate cancer, hormone refractory LAPC4. This model is established from passaging of hormone sensitive prostate cancer in castrated mice, which mimics the clinical progression of prostate cancer.

Sequence of androgen receptor (AR) (Homo sapiens, UniProt P10275, T878A) (P10275 whole entry T878A): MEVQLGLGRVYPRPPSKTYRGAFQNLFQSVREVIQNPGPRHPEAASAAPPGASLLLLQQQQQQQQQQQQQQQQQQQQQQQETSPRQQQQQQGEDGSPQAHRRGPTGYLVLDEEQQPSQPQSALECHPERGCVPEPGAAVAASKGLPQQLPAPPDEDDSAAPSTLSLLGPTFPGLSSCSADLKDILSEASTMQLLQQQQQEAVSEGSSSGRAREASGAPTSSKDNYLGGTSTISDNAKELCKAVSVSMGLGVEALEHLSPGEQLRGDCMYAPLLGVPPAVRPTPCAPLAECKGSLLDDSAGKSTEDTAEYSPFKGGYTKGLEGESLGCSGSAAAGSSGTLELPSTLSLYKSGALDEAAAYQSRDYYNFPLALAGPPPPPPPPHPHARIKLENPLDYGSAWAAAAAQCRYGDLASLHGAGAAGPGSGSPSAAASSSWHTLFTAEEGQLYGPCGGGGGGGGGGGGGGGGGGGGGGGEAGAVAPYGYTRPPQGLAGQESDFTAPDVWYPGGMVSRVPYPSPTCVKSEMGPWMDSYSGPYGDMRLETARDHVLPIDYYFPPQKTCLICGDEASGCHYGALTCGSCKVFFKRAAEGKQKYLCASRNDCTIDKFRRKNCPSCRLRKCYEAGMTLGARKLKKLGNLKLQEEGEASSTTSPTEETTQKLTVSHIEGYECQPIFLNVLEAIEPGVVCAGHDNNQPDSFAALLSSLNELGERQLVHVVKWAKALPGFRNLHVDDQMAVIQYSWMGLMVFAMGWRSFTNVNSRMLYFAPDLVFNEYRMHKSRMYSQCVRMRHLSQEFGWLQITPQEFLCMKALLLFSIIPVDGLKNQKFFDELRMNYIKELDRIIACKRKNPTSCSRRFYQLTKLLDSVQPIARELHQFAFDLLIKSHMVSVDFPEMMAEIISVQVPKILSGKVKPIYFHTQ

In the case of `CC1(C)C(=O)N(c2ccc(C#N)c(C(F)(F)F)c2)C(=S)N1CCCCO` [RU59063], the “stimulation of PSA expression (agonistic activity)” value (androgen receptor (AR) [1]; hormone refractory prostate cancer, absence of R1881) is reported as “can stimulate PSA expression” and the “agonistic activity on AR (AR response reporter)” value (androgen receptor (AR) [2]; LN-AR system, hormone refractory, absence of R1881) is reported as “can activate AR”.

With `C[C@]1(O)CC[C@H]2[C@@H]3CCC4=CC(=O)CCC4=C3C=C[C@@]21C` [R1881] the “concentration at which PSA is first induced” value (androgen receptor (AR) [3]) was 100 pM, the “concentration at which growth is first stimulated” value (LNCaP cells) was 100 µM and the “concentration that strongly induces the secreted PSA level” value (androgen receptor (AR) [1]; LNCaP-AR cells) was 25 pM. For the same compound, the “reporter activity response to androgen” value (androgen receptor (AR) [2]; LNCaP-AR cells) was “responds to low concentration” and the “concentration that stimulates growth” value ([4]; AR-overexpressed LNCaP, MTS) was 25 µM.

In the case of `CC(O)(CS(=O)(=O)c1ccc(F)cc1)C(=O)Nc1ccc(C#N)c(C(F)(F)F)c1` (stereo not shown) [Bicalutamide], the “inhibition of PSA expression” value (hormone refractory LAPC4) is reported as “does not inhibit”, the inhibition of growth (hormone refractory LAPC4) is reported as “does not inhibit” and the “inhibitory effect on growth of hormone refractory prostate cancer” value ([4]; presence of 100 pM of R1881, MTS) is reported as “does not inhibit”.

From patent US9896437B2, “Diarylhydantoin compounds” (The Regents of the University of California, priority 2007, dated 2018)
